Measured values taken from publication PMC5656322, “BAK1 is involved in AtRALF1-induced inhibition of root cell expansion” (PLoS Genetics, 2017).
Where no end group is shown, it is not given here.

What was measured:
[1] = test system: truncated proteins from the extracellular domain of BAK1; assay: Yeast two-hybrid with truncated BAK1-ECD; assay type: binding, Arabidopsis thaliana
Source text: Fig 6 AtRALF1 interacts physically with BAK1 protein. (A) The active AtRALF1 peptide interacts with the extracellular domain (ECD) of BAK1 (BAK1-ECD) in yeast. The AtRALF1 protein fused to the GAL4 DNA-binding domain (AtRALF1-pGBKT7) was used as bait to test its interaction with the extracellular domain of the proteins fused to the GAL4 activation domain (pGADT7): BAK1 (BAK1-ECD), BAK7 (BAK7-ECD), BRI1 (BRI1-ECD) and FLS2 (FLS2-ECD). (B) Blueprint showing the truncated proteins from the extracellular domain of BAK1 tested in the two-hybrid assay. The extracellular domain of BAK1 comprises leucine zippers (LZ), 5 leucine rich-regions (LRRs) and a proline-rich region (pro-rich). (C) AtRALF1-pGBKT7 was used as bait to test its interaction with truncated proteins fused to the GAL4 activation domain (pGADT7). The transformed yeast cells in (A) and (C) were selected on a synthetic complete medium lacking leucine, tryptophan and histidine to test interactions. (D, E) Co-immunoprecipitation (Co-IP) in vitro between the extracellular domain of BAK1 (HA-BAK1-ECD) and AtRALF1 recombinant purified proteins. HA-BAK1-ECD was detected with an anti-HA antibody. AtRALF1 was detected with an anti-RALF antibody. (F) Recombinant AtRALF1 is co-immunoprecipitated with the BAK1-GFP protein expressed in tobacco. BAK1-GFP was detected with an anti-GFP antibody. […] (G) Isothermal titration calorimetry (ITC) of the extracellular domain of BAK1 (BAK1-ECD) vs. AtRALF1 in ITC buffer (15 mM HEPES, pH 6.8). ITC experiments were simulated using 28 injections of BAK1-ED (0.7 mM, vol 10 μL) on AtRALF1 (0.03 mM vol cell = 1.4 mL) at 25°C. […]
The coding regions of the mature peptides AtRALF1 and AtRALF34 were amplified from Arabidopsis genomic DNA and fused to the GAL4 DNA-binding domain and the MYC epitope tag using the NdeI/BamHI sites in the pGBKT7 (Clontech) vector. […] The proteins fused to the HA and MYC epitope tags were detected by protein blotting. […]
Supplementary file pgen.1007053.s012.pdf: S12 Fig Analyses of protein extracts from yeast. […] The proteins were monitored using an anti-HA antibody. […]

BAK1-GFP = assay: BAK1 protein accumulation, protein blot anti-GFP; assay type: in vivo, Arabidopsis thaliana; details: pBAK1:BAK1-GFP plants, 1 μM
Protocol: Fig 4 The BAK1 gene is induced by AtRALF1. (A) BAK1 gene expression in the roots of Arabidopsis seedlings (10-days-old) treated with AtRALF1. Root tissues were collected 1 h after treatment. Semi-quantitative RT-PCR and qRT-PCR were performed using total RNA extracted from the roots of untreated (-) or treated (+) plants. GAPDH expression was used as an internal control. (B) Quantification of GFP fluorescence intensity. The values are the mean ± SD of 20 seedlings. Student’s t test was used to compare the values obtained from treated and untreated seedlings. Double asterisk indicates P < 0.05 (Student’s t test); ns, not significant. (C) Representative confocal images of pBAK1:BAK1-GFP seedlings (4 days old) treated with 1 μM AtRALF1. Images were captured 4 h after treatment and were obtained by scanning 10 slices over a distance of 7 μm. MZ, meristematic zone; EZ, elongation zone; DZ, Differentiation zone. Bars, 100 μm. (D) pBAK1:BAK1-GFP plants were treated with water or 1 μM AtRALF1. After treatment, protein extracts from pBAK1:BAK1-GFP roots were subjected to immunoblot analysis with anti-GFP antibody. Ponceau was used to show equal loading of protein.

With “AtRALF1: root-specific RALF isoform in Arabidopsis; recombinant peptide hormone produced in E. coli (ATTKYISYQSLKRNSVPCSRRGASYYNCQNGAQANPYSRGCSKIARCRS; ends and bridges not checked; cysteine pairing not given here)” the “interaction with truncated BAK1-ECD” value ([1]; 12 truncated proteins) was “only two that interacted with AtRALF1: Leu zippers + LRR1 + LRR2 + LRR3 and Leu zippers + LRR1 + LRR2”, the “interaction with BAK1-ECD lacking Pro-rich region and LRR5” value ([1]; C-terminal deletion) was “abolished the interaction” and the “interaction with N-terminal deletions of BAK1-ECD” value ([1]; deletions from N-terminal) was “None of the deletions from N-terminal were able to interact with AtRALF1”. The BAK1 protein accumulation (BAK1-GFP) was “BAK1 protein accumulation was also verified by protein blot”.
